These results are taken from patent US20090274577A1, “STE[…] TREATMENT WITH REDUCTANT AND OXIDANT” (priority 2008, published 2009).

This assay has as its system Bacillus atrophaeus spores. The assay is described as follows: Filtering test: spores incubated in test solution, filtered, filter half treated with ozone, colonies counted. Format: cell-based. From the text:
Bacterial spores: Stainless steel discs with Bacillus atrophaeus spores (log 6, cat #1-6100ST, Raven Biological Laboratories).
An ozone generator provided ˜350 ppm O3, and a flow rate of ˜25 l/min, using setting No. 1.
Commercially available sterile single filters (pore size 0.45 μm) and an analytical test filter funnel from Nalgene was used (F-2161, Sigma-Aldrich). For suction, a Rietschle Thomas DTF 6 vacuum pump was used, with a flow rate of ˜6 m3/h, providing a vacuum of ˜150 mbar abs.
Filtering test: In filtering test experiments the spore solutions were prepared in a volume of 1 ml and processed. Thereto, after an incubation period of 5 min in the appropriate buffer at 40° C. using a rotary shaker, an aliquot of 250 μl of the suspension was transferred onto a sterile single use filters. The filter was washed two times with 10 ml of sterile water. The filter was retrieved under sterile conditions, and the filter was cut into halves using a sterile scissor. Only one half of the filter was treated with ozone, while the other half was kept as control, i.e. without ozone treatment. Finally, both halves were placed onto a TSA plate and incubated at 30° C. Initially Nutrient Agar plates were used, but later on a switch was made to TSA plates, in order to utilize the more pronounced reddish colour of Bacillus atrophaeus colonies which was facilitating analysis and documentation. […]

Molecules are shown by their SMILES.

`OC(CS)C(O)CS` (racemic) [DTT, DL-dithiotreitol]: the “reduction of viability of Bacillus atrophaeus” value (liquid media comprising reductant, then sterile air with ~350 ppm ozone for 5 or 10 min) is 3-5 logs. In addition, where the note is “test solution followed by ~350 ppm ozone, 5 or 10 min”, the “sterilizing/disinfecting/killing effect (in words)” value is given as “improved”.
